We go through 7 compounds from US7045624B2, “Compounds and their uses” (Conopco, Inc., priority 2002, dated 2006).

Assay [1] is described as follows: Cooling effect of synthesised compounds (test not described). As to conditions: ability to elicit a cooling sensation; no test details given.
In assay [2] the test system is mucous membranes (nostrils, lips and eyelids) of the researchers. The following applies: in contact with mucous membranes (nostrils, lips and eyelids), also when ingested; cited from earlier work.
For assay [3], the system named is Neurons from trigeminal ganglia of Wistar rats. Description: Ca2+ response of cultured trigeminal neurons to test compounds (Fura-2 fluorescence). It counts as cell-based. The following applies: 100 μM final test concentration; cellular Ca2+ levels, cultured rat trigeminal neurons; relative to compound 1 (icilin). How it is done: The efficacy of different compounds according to the invention was tested in vitro, by exposing cultured neurons to the compounds and monitoring the cellular Ca^2+ levels.
The compounds were dissolved in DMSO by ultrasonication to a 0.1 M solution. 5 μl of this stock was added to 5 mg of cyclodextrin and 5 ml of 140 Na-tyrode, to achieve a 100 μM final test concentration.
Neurons from trigeminal ganglia of Wistar rats were prepared as described in U.S. Pat. No. 5,811,256. After 24 hours of cultivation, the responsiveness of the neurons to different compounds was measured according to the general procedure described by McKemy et al (Nature, Vol. 416, 2002, 52–58). The test protocol described by McKemy was modified slightly, by using the fluorescent Ca^2+ indicator Fura-2. Detection of the cellular fluorescence signals was performed by videomicroscopical analysis. The neurons were given a cold stimulus by a thermocoupling device and were subsequently tested for responsiveness to the test compounds by superfusion with solutions containing the test compounds while continuously monitoring the cellular Ca^2+ levels.
The results were recorded for compounds 1 to 3 and menthol, and are expressed below, as a percentage compared to the activity for compound 1 (icilin).

Molecules are shown by their SMILES.

On to `COc1cccc(C2=CCN(c3ccccc3O)C(=O)N2)c1` [1-(2′-hydroxyphenyl)-4-(3″-methoxyphenyl)-1,2,3,6-tetrahydropyrimidine-2-one], for which the cooling effect result in assay [1] is recorded as “good cooling effects”.

On to `O=C1NC(c2ccccc2)=CCN1c1ccccc1O` [1-(2′-hydroxyphenyl)-4-phenyl-1,2,3,6-tetrahydropyrimidine-2-one], for which the cooling effect result in assay [1] is listed as “good cooling effects”.

In the case of `O=C1NC(c2cccc([N+](=O)[O-])c2)=CCN1c1ccccc1C(F)(F)F` [1-(2′-trifluoromethylphenyl)-4-(3″-nitrophenyl)-1,2,3,6-tetrahydropyrimidine-2-one], the cooling effect result in assay [1] is on record as “good cooling effects”.

With `O=C1NC(c2cccc([N+](=O)[O-])c2)=CCN1c1ccccc1` [1-phenyl-4-(3″-nitrophenyl)-1,2,3,6-tetrahydropyrimidine-2-one], the cooling effect entry in assay [1] was “good cooling effects”.

As to `O=C1NC(c2ccccc2[N+](=O)[O-])=CCN1c1ccccc1O` [Compound 1, 1-[2-hydroxyphenyl]-4-[2-nitrophenyl]-1,2,3,6-tetrahydropyrimidine-2-one], in assay [2], the sensations of coldness result was “produced sensations of coldness”. In addition, the “Activity (% relative to Compound 1)” value in assay [3] was 100%.

In the case of `O=C1NC(c2cccc(Cl)c2)=CCN1c1ccccc1O` [Compound 3, 1-(2′-hydroxyphenyl)-4-(3″-chlorophenyl)-1,2,3,6-tetrahydro-pyrimidine-2-one], the “Activity (% relative to Compound 1)” value in assay [3] came out at 35%.

Consider `CC1CCC(C(C)C)C(O)C1` (centres unmarked) [Menthol, 2-isopropyl-5-methyl-cyclohexanol], for which the “Activity (% relative to Compound 1)” value in assay [3] is 42%.
